# Laboratory results reported in patent publication US10414774B2, “Compound useful for altering the levels of bile acids for the treatment of diabetes and cardiometabolc disease” (Merck Sharp & Dohme Corp., priority 2016, dated 2019).
# Target: T1, Human CYP8B1 (Homo sapiens, UniProt Q9UNU6)
# T1 sequence (Q9UNU6 1-501): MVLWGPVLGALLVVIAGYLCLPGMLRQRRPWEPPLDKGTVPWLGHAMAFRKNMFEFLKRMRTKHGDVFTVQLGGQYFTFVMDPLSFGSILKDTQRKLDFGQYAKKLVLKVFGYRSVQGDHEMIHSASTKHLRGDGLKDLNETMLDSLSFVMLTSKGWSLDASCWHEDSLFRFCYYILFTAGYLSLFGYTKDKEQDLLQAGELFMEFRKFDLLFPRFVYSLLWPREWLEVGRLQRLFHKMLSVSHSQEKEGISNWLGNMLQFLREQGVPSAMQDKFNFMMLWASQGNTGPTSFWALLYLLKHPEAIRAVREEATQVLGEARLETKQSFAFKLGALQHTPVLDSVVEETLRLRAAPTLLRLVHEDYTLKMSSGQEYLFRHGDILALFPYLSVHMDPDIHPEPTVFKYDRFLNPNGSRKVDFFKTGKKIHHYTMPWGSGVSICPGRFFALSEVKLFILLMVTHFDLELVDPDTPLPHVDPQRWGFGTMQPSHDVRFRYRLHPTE
# Assay: Human CYP8B1 Liver Microsome Assay
# Settings: Human CYP8B1 IC50, human liver microsomes; substrate 7a-hydroxy-4-cholesten-3-one, NADPH; RapidFire MS detection of 7α,12α-dihydroxy-4-cholesten-3-one
# Procedure: To a 384 well polypropylene plate (Corning 3656), 250 nl of inhibitor in 100% DMSO (1.25% final DMSO concentration) was pre-plated using an Echo liquid handler (Labcyte Inc.). Human liver microsomes (Xenotech) were diluted in of 0.1 M phosphate buffer, pH 7.4, at a concentration of 65 μg/ml and 15 μL was added to the 384 well plate. The plates were incubated at ambient room temperature for 30 minutes. After pre-incubation with inhibitor, the reaction was initiated by adding 5 μl of substrate solution (4.0 μM 7a-hydroxy-4-cholesten-3-one (Toronto Research Chemicals), 2 mM of NADPH (Sigma), 0.1 M phosphate buffer (pH 7.4). The reaction was carried out for 45 minutes at ambient room temperature and was quenched by the addition of 50 μl of acetonitrile+0.1% vol/vol formic acid (FA)+300 nM 7α-hydroxy-4-cholesten-3-one-d7 (Toronto Research Chemicals). The plates were sealed and centrifuged at 3000 rpm for 5 minutes. Plates were loaded onto the Agilent RapidFire RF300 HTMS system, wherein samples were sipped for 600 ms, and the sip sensor detection signals the diversion of sample from the loop onto a C4 solid phase extraction (SPE) cartridge, where salts are washed off for 2500 ms with a mobile phase of water with 0.1% vol/vol FA at a flow rate of 1.5 ml/min. The column path was switched, and the sample was eluted off the cartridge and flowed into the mass spectrometer for 3000 ms with a mobile phase of acetonitrile and 0.1% vol/vol FA at a flow rate of 1.25 ml/min. The aspirator tip was washed separately with water and acetonitrile between sample aspirations (each for 600 ms) to minimize carryover contamination. Mass spectrometry was carried out using a Sciex API4000 triple quadrupole mass spectrometer (Applied Biosystems, Concord, ON, Canada) equipped with electrospray ionization (ESI) operated in the positive-ion mode. The product 7α,12α-dihydroxy-4-cholesten-3-one and internal standard 7α-hydroxy-4-cholsten-3-one-d7 were detected using multiple reaction monitoring (MRM) with Q1/Q3 transitions at m/z 417.3 to 381.3 and m/z 408.3 to 390.3, respectively, with a dwell time of 100 ms and a collision energy of 24 V for each transition. The mass spectrometer used an ESI voltage of 5000 V and a source temperature of 650° C. Extracted ion chromatograms for each transition were integrated and processed using the RapidFire Integrator software. The data for each well were normalized by monitoring product conversion with the ratio of AUCproduct/(AUCinternal standard). The data was then fitted to a four parameter logistic fit using ActivityBase Software to calculate an IC50 of the inhibitor.
row,IC50 [nM],SMILES
1,1,"C[C@@H]1CN(c2c(C#N)cnc3cc(C(C)(F)F)ccc23)CC[C@@H]1C(=O)N1CCn2c(nnc2C(F)(F)F)C1 [Example 78, 7-(1,1-difluoroethyl)-4-[(3S,4S)-3-methyl-4-{[3-(trifluoromethyl)-5,6-dihydro[1,2,4]triazolo[4,3-a]pyrazin-7(8H)-yl]carbonyl}piperidin-1-yl]quinoline-3-carbonitrile]"
2,0.35,"[2H]C([2H])([2H])Oc1ccc2c(N3CC[C@H](C(=O)N4CCn5c(nnc5C(F)(F)F)C4)[C@H](C)C3)c(C#N)cnc2c1 [Example 80, 7-[(^2H3)methyloxy]-4-[(3S,4S)-3-methyl-4-{[3-(trifluoromethyl)-5,6-dihydro[1,2,4]triazolo[4,3-a]pyrazin-7(8H)-yl]carbonyl}piperidin-1-yl]quinoline-3-carbonitrile]"
3,16,"CC1CC(C(=O)N2CCn3c(nnc3C(F)(F)F)C2)CCN1c1c(C#N)cnc2ccc(Cl)cc12 (single isomer, unassigned) [Example 73c, 6-chloro-4-[(2R,4S) or (2S,4R)-2-methyl-4-{[3-(trifluoromethyl)-5,6-dihydro[1,2,4]triazolo[4,3-a]pyrazin-7(8H)-yl]carbonyl}piperidin-1-yl]quinoline-3-carbonitrile]"
4,23.2,"N#Cc1cnc2ccc(Cl)cc2c1N1CCC(C(=O)N2CCn3c(nnc3C(F)(F)F)C2)CC1 [Example 103, 6-chloro-4-(4-(3-(trifluoromethyl)-5,6,7,8-tetrahydro-[1,2,4]triazolo[4,3-a]pyrazine-7-carbonyl)piperidin-1-yl)quinoline-3-carbonitrile]"
5,68,"COc1ccc2ncc(C#N)c(N3CCC(C(=O)N4CCn5c(nnc5C(F)(F)F)C4)CC3)c2c1 [Example 46, 6-methoxy-4-(4-(3-(trifluoromethyl)-5,6,7,8-tetrahydro-[1,2,4]triazolo[4,3-a]pyrazine-7-carbonyl)piperidin-1-yl)quinoline-3-carbonitrile]"
6,0.2,"C[C@@H]1CN(c2c(C#N)cnc3cc(-c4ccccc4)ccc23)CC[C@@H]1C(=O)N1CCn2c(nnc2C(F)(F)F)C1 [Example 90, 4-((3S,4S)-3-methyl-4-(3-(trifluoromethyl)-5,6,7,8-tetrahydro-[1,2,4]triazolo[4,3-a]pyrazine-7-carbonyl)piperidin-1-yl)-7-phenylquinoline-3-carbonitrile]"
7,0.2,"COc1ccc2c(N3CC[C@H](C(=O)N4CCn5c(nnc5C(F)(F)F)C4)[C@H](C)C3)c(C#N)cnc2c1C [Example 19, 7-methoxy-8-methyl-4-[(3S,4S)-3-methyl-4-{[3-(trifluoromethyl)-5,6-dihydro[1,2,4]triazolo[4,3-a]pyrazin-7(8H)-yl]carbonyl}piperidin-1-yl]quinoline-3-carbonitrile]"
8,41,"C[C@@H]1CN(c2c(C#N)c(C(F)F)nc3ccc(Cl)cc23)CC[C@@H]1C(=O)N1CCn2c(nnc2C(F)(F)F)C1 (single isomer, unassigned) [Example 57a]"
9,0.5,"Cc1nc2ccc(Cl)cc2c(N2CC[C@H](C(=O)N3CCn4c(nnc4C(F)(F)F)C3)[C@H](C)C2)c1C#N [Example 122, 6-chloro-2-methyl-4-((3S,4S)-3-methyl-4-(3-(trifluoromethyl)-5,6,7,8-tetrahydro-[1,2,4]triazolo[4,3-a]pyrazine-7-carbonyl)piperidin-1-yl)quinoline-3-carbonitrile]"
10,30,"C[C@@H]1CN(c2c(C#N)cnc3ncc(Br)cc23)CC[C@@H]1C(=O)N1CCn2c(nnc2C(F)(F)F)C1 [Example 30, 6-bromo-4-[(3S,4S)-3-methyl-4-{[3-(trifluoromethyl)-5,6-dihydro[1,2,4]triazolo[4,3-a]pyrazin-7(8H)-yl]carbonyl}piperidin-1-yl]-1,8-naphthyridine-3-carbonitrile]"
11,441,"CO[C@@H]1CN(c2c(C#N)cnc3ccc(Cl)cc23)CC[C@H]1C(=O)N1CCn2c(nnc2C(F)(F)F)C1 [Example 72b, 6-chloro-4-[(3S,4R)-3-methoxy-4-{[3-(trifluoromethyl)-5,6-dihydro[1,2,4]triazolo[4,3-a]pyrazin-7(8H)-yl]carbonyl}piperidin-1-yl]quinoline-3-carbonitrile]"
12,0.61,"COc1ccc2c(N3CC[C@H](C(=O)N4CCn5c(nnc5C(F)(F)F)C4)[C@H](C)C3)c(C#N)cnc2c1 [Example 28, 7-methoxy-4-[(3S,4S)-3-methyl-4-{[3-(trifluoromethyl)-5,6-dihdyro[1,2,4]triazolo[4,3-a]pyrazin-7(8H)-yl]carbonyl}piperidin-1-yl]quinoline-3-carbonitrile]"
13,1.7,"C[C@@H]1CN(c2c(C#N)cnc3c(Cl)cccc23)CC[C@@H]1C(=O)N1CCn2c(nnc2C(F)(F)F)C1 [Example 14, 8-chloro-4-[(3S,4S)-3-methyl-4-{[3-(trifluoromethyl)-5,6-dihydro[1,2,4]triazolo[4,3-a]pyrazin-7(8H)-yl]carbonyl}piperidin-1-yl]quinoline-3-carbonitrile]"
14,1.5,"C[C@@H]1CN(c2c(C#N)c(Cl)nc3ccc(Cl)cc23)CC[C@@H]1C(=O)N1CCn2c(nnc2C(F)(F)F)C1 [Example 56, 2,6-dichloro-4-[(3S,4S)-3-methyl-4-{[3-(trifluoromethyl)-5,6-dihydro[1,2,4]triazolo[4,3-a]pyrazin-7(8H)-yl]carbonyl}piperidin-1-yl]quinoline-3-carbonitrile]"
15,0.51,"COc1ccc2ncc(C#N)c(N3CC[C@H](C(=O)N4CCn5c(nnc5C(F)(F)F)C4)[C@H](C)C3)c2c1 [Example 9, 6-methoxy-4-[(3S,4S)-3-methyl-4-{[3-(trifluoromethyl)-5,6-dihydro[1,2,4]triazolo[4,3-a]pyrazin-7(8H)-yl]carbonyl}piperidin-1-yl]quinoline-3-carbonitrile]"
16,69,"CC1CN(c2c(C#N)c(C(F)F)nc3ccc(Cl)cc23)CCC1C(=O)N1CCn2c(nnc2C(F)(F)F)C1 (stereo not shown) [Example 57, 6-chloro-2-(difluoromethyl)-4-(3-methyl-4-{[3-(trifluoromethyl)-5,6-dihydro[1,2,4]triazolo[4,3-a]pyrazin-7(8H)-yl]carbonyl}piperidin-1-yl)quinoline-3-carbonitrile]"
17,2.1,"C[C@@H]1CN(c2c(C#N)cnc3cc(F)ccc23)CC[C@@H]1C(=O)N1CCn2c(nnc2C(F)(F)F)C1 [Example 6, 7-fluoro-4-[(3S,4S)-3-methyl-4-{[3-(trifluoromethyl)-5,6-dihydro[1,2,4]triazolo[4,3-a]pyrazin-7(8H)-yl]carbonyl}piperidin-1-yl]quinoline-3-carbonitrile]"
18,11.3,"COc1ccc2c(N3C[C@@H](C)N(C(=O)N4CCn5c(nnc5C(F)(F)F)C4)[C@H](C)C3)c(C#N)cnc2c1 [Example 83a, 4-((3R,5R)-3,5-dimethyl-4-(3-(trifluoromethyl)-5,6,7,8-tetrahydro-[1,2,4]triazolo[4,3-a]pyrazine-7-carbonyl)piperazin-1-yl)-7-methoxyquinoline-3-carbonitrile]"
19,4.8,CC1CN(c2c(C#N)cnc3c(C(F)F)cc(Cl)cc23)CCC1C(=O)N1CCn2c(nnc2C(F)(F)F)C1 (stereo not shown) [Example 58]
20,76,"Cc1nc2ccc(C3CC3)cc2c(N2CCC(C(=O)N3CCn4c(nnc4C(F)(F)F)C3)CC2)c1C#N [Example 53, 6-cyclopropyl-2-methyl-4-(4-(3-(trifluoromethyl)-5,6,7,8-tetrahydro-[1,2,4]triazolo[4,3-a]pyrazine-7-carbonyl)piperidin-1-yl)quinoline-3-carbonitrile]"
21,564,"COc1ccc2nc(C)c(C#N)c(N3CCC(C(=O)N4CCn5c(nnc5C(F)(F)F)C4)CC3)c2c1 [Example 47, 6-methoxy-2-methyl-4-(4-(3-(trifluoromethyl)-5,6,7,8-tetrahydro-[1,2,4]triazolo[4,3-a]pyrazin-7-carbonyl)piperidin-1-yl)quinoline-3-carbonitrile]"
22,0.7,"CCOc1ccc2c(N3CC[C@H](C(=O)N4CCn5c(nnc5C(F)(F)F)C4)[C@H](C)C3)c(C#N)cnc2c1 [Example 39, 7-ethoxy-4-[(3S,4S)-3-methyl-4-{[3-(trifluoromethyl)-5,6-dihydro[1,2,4]triazolo[4,3-a]pyrazin-7(8H)-yl]carbonyl}piperidin-1-yl]quinoline-3-carbonitrile]"
23,2.6,"C[C@@H]1CN(c2c(C#N)cnc3cnc(F)cc23)CC[C@@H]1C(=O)N1CCn2c(nnc2C(F)(F)F)C1 [Example 31, 6-fluoro-4-[(3S,4S)-3-methyl-4-{[3-(trifluoromethyl)-5,6-dihydro[1,2,4]triazolo[4,3-a]pyrazin-7(8H)-yl]carbonyl}piperidin-1-yl]-1,7-naphthyridine-3-carbonitrile]"
24,5.8,"Cc1nc2ccc(Cl)cc2c(N2CC[C@H](C(=O)N3CCn4cccc4C3)[C@H](C)C2)c1C#N [Example 91, 6-chloro-4-[(3S,4S)-4-(3,4-dihydropyrrolo[1,2-a]pyrazin-2(1H)-ylcarbonyl)-3-methylpiperidin-1-yl]-2-methylquinoline-3-carbonitrile]"
25,210,"COc1nc2ccc(Cl)cc2c(N2CCC(C(=O)N3CCn4c(nnc4C(F)(F)F)C3)C(C)C2)c1C#N (stereo not shown) [Example 126, 6-chloro-2-methoxy-4-(3-methyl-4-{[3-(trifluoromethyl)-5,6-dihydro[1,2,4]triazolo[4,3-a]pyrazin-7(8H)-yl]carbonyl}piperidin-1-yl)quinoline-3-carbonitrile]"
